Data: patent US20090088432A1, “Thiazolinones and Oxazolinones and their Use as Ptp1b Inhibitors” (priority 2005, published 2009)

Biological target: T1, Recombinant human Protein-tyrosine phosphatase1B (PTP1B) (Homo sapiens, UniProt P18031)
T1 construct: Recombinant human Protein-tyrosine phosphatase1B (PTP1B) (amino acid 1-322 Biomol, USA); purchased Biomol, USA
T1 sequence (P18031 1-322): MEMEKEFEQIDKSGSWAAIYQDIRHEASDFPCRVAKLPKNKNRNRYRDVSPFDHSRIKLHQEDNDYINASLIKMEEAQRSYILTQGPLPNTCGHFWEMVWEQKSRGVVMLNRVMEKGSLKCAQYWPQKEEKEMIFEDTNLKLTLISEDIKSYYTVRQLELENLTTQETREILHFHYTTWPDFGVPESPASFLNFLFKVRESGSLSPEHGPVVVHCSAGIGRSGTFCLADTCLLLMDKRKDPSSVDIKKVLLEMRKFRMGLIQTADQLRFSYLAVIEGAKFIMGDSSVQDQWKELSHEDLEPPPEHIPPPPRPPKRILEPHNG
Test: PTP1B enzyme inhibition assay (pNpp substrate)
Format: biochemical
Settings: inhibition of recombinant human PTP1B, pNpp 5 mM, 30 mins at 25° C; inhibitor concentration not given
Experimental: Protein tyrosine phosphatase 1B (PTP1B) is an intracellular enzyme which functions by removing the phosphate groups from phosphorylated tyrosine residues of cellular proteins. PTP1B has been implicated as a negative regulator of insulin action and therefore is of therapeutic interest. The ability of the test compounds to inhibit the activity of PTP1B is determined using an enzyme inhibition assay.
The assay is performed using two independent substrates of PTP1B namely, p-nitrophenyl phosphate (pNpp) and the phosphorylated Epidermal growth factor receptor peptide (EGFR).
In the assay performed with pNpp, the action of PTP1B results in the release of p-nitrophenol, which is yellow in colour and can be measured at 410 nm. In the case of the assay using EGFR, action of PTP1B results in the release of free phosphate group. This is trapped using a reagent containing ammonium molybdate and malachite green resulting in a colored complex whose absorbance can be measured at 620 nm.
1× Assay buffer 50 mM HEPES (pH 7.4) • 1 mM EDTA • 1 mM DTT • 0.05% Igepal® CA-630
Dilute recombinant Human PTP1B 1:150 in 1× Assay buffer for 10× stock,
Prepare 10× stock of pNpp (50 mM) in 1× Assay buffer
Prepare 100× stock in 100% DMSO, dilute 1:10 with 1× Assay buffer to get 10× stock in 10% DMSO.
PTP1B inhibition assay was performed using recombinant human PTP1B. PTP1B (0.016 μg/well) was incubated in a buffer containing 50 mM HEPES, 1 mM DTT, 1 mM EDTA and 0.05% Igepal® CA-630 with or without inhibitor (10× stock, final DMSO concentration is 1%) for 30 mins at 25° C. This was followed by addition of p-Nitrophenyl phosphate (pNpp) substrate (5 mM). The final volume of the reaction mixture is 50 μL and experiment was done in 96 well half area plate. The incubation was continued for 30 mins at 25° C. The conversion of pNpp to p-Nitrophenol (pNp) was measured at 410 nm in Spectramaxplus Spectrophotometer (Molecular Devices, USA).

## O=C(O)Cc1ccc(NC2=NC(=O)C(=Cc3ccc4ccccc4c3)S2)cc1 [Compound 1, [4-(5-Naphthalen-2-ylmethylene-4-oxo-4,5-dihydro-thiazol-2-ylamino)-phenyl]-acetic acid]
  Activity Score: (+++) (+++ = >50% inhibition)

## O=C(O)CC(C(=O)O)c1ccc(NC2=NC(=O)C(=Cc3ccc(-c4ccccc4)cc3)S2)cc1 (stereo not shown) [Compound 55, 2-[4-(5-Biphenyl-4-ylmethylene-4-oxo-4,5-dihydro-thiazol-2-ylamino)-phenyl]-succinic acid]
  Activity Score: (++) (++ = 20-50% inhibition)

## O=C(O)Cc1ccc(NC2=NC(=O)C(=Cc3cccc(N4CCN(c5ccccn5)CC4)c3)S2)cc1 [Compound 90, (4-{4-Oxo-5-[3-(4-pyridin-2-yl-piperazin-1-yl)-benzylidene]-4,5-dihydro-thiazol-2-ylamino}-phenyl)-acetic acid]
  Activity Score: (+++) (+++ = >50% inhibition)

## O=C(O)Cc1ccc(NC2=NC(=O)C(=Cc3ccc(C(F)(F)F)cc3)S2)cc1 [Compound 72, {4-[4-Oxo-5-(4-trifluoro methyl-benzylidene)-4,5-dihydro-thiazol-2-ylamino]-phenyl}-acetic acid]
  Activity Score: (+) (+ = 10-20% inhibition)

## O=C(O)CCc1ccc(NC2=NC(=O)C(=Cc3cc4ccccc4cc3OCc3ccccc3)S2)cc1 [Compound 49, 3-{4-[5-(3-Benzyloxy-naphthalen-2-ylmethylene)-4-oxo-4,5-dihydro-thiazol-2-ylamino]-phenyl}-propionic acid]
  Activity Score: (++) (++ = 20-50% inhibition)

## COc1ccc(S(=O)(=O)NC(=O)Cc2ccc(NC3=NC(=O)C(=Cc4ccc(-c5ccccc5)cc4)S3)cc2)cc1.[Na] [Compound 226, N-{2-[4-(5-Biphenyl-4-ylmethylene-4-oxo-4,5-dihydro-thiazol-2-ylamino)-phenyl]-acetyl}-4-methoxy-benzenesulfonamide, sodium salt]
  Activity Score: (+++) (+++ = >50% inhibition)

## O=C(O)Cc1ccc(NC2=NC(=O)C(=Cc3cc4ccccc4cc3OCc3ccc(F)cc3)S2)cc1 [Compound 85, (4-{5-[3-(4-Fluoro-benzyloxy)-naphthalen-2-ylmethylene]-4-oxo-4,5-dihydro-thiazol-2-ylamino}-phenyl)-acetic acid]
  Activity Score: (+++) (+++ = >50% inhibition)

## O=C(O)Cc1ccc(NC2=NC(=O)C(=Cc3ccccc3)S2)cc1 [Compound 5, [4-(5-Benzylidene-4-oxo-4,5-dihydro-thiazol-2-ylamino)-phenyl]-acetic acid]
  Activity Score: (+) (+ = 10-20% inhibition)

## O=C(O)CCc1ccc(NC2=NC(=O)C(=Cc3cn(CC(=O)O)c4ccccc34)S2)cc1 [Compound 43, 3-{4-[5-(1-Carboxymethyl-1H-indo-3-ylmethylene)-4-oxo-4,5-dihydro-thiazol-2-ylamino]-phenyl}-propionic acid]
  Activity Score: (+++) (+++ = >50% inhibition)

## CC(C)Oc1cc2ccccc2cc1C=C1SC(Nc2ccc(CC(=O)O)cc2)=NC1=O [Compound 10, {4-[5-(3-Isopropoxy-naphthalen-2-ylmethylene)-4-oxo-4,5-dihydro-thiazol-2-ylamino]-phenyl}-acetic acid]
  Activity Score: (++) (++ = 20-50% inhibition)

## O=C(O)Cc1ccc(NC2=NC(=O)C(=Cc3c[nH]c4ccccc34)S2)cc1 [Compound 8, {4-[5-(1H-Indol-3-ylmethylene)-4-oxo-4,5-dihydro-thiazol-2-ylamino]-phenyl}-acetic acid]
  Activity Score: (+) (+ = 10-20% inhibition)

## Cc1ccc(S(=O)(=O)NC(=O)Cc2ccc(NC3=NC(=O)C(=Cc4cc5ccccc5cc4OCC(=O)O)S3)cc2)cc1 [Compound 213, [3-(4-Oxo-2-{4-[2-oxo-2-(toluene-4-sulfonylamino)-ethyl]-phenylamino}-4H-thiazol-5-ylidenemethyl)-naphthalen-2-yloxy]-acetic acid]
  Activity Score: (++) (++ = 20-50% inhibition)

## 4-[5-(6-Ethoxy-naphthalen-2-ylmethylene)-4-oxo-4,5-dihydro-thiazol-2-ylamino]-phenyl}-sodium acetate [Compound 143]
  Activity Score: (+++) (+++ = >50% inhibition)

## O=C([O-])CCc1ccc(NC2=NC(=O)C(=Cc3ccc4cc(F)ccc4c3)S2)cc1.[Na+] [Compound 205, 3-{4-[5-(6-Fluoro-naphthalen-2-ylmethylene)-4-oxo-4,5-dihydro-thiazol-2-ylamino]-phenyl}-sodium propionate]
  Activity Score: (+++) (+++ = >50% inhibition)

## O=C(O)Cc1ccc(NC2=NC(=O)C(=Cc3cccn3-c3ccccc3)S2)cc1 [Compound 62, {4-[4-Oxo-5-(1-phenyl-1H-pyrrol-2-ylmethylene)-4,5-dihydro-thiazol-2-ylamino]-phenyl}-acetic acid]
  Activity Score: (+++) (+++ = >50% inhibition)

## NS(=O)(=O)c1ccc(-c2ccc(C=C3SC(Nc4ccc(CC(=O)O)cc4)=NC3=O)cc2)cc1 [Compound 210, {4-[4-Oxo-5-(4′-sulfamoyl-biphenyl-4-ylmethylene)-4,5-dihydro-thiazol-2-ylamino]-phenyl}-acetic acid]
  Activity Score: (+++) (+++ = >50% inhibition)

## {3-[5-(1-Carbamoylmethyl-1H-indol-3-ylmethylene)-4-oxo-4,5-dihydro-thiazol-2-ylamino]-phenyl}-acetic acid [Compound 23]
  Activity Score: (+++) (+++ = >50% inhibition)

## O=C(O)Cc1csc(NC2=NC(=O)C(=Cc3cc4ccccc4cc3OCc3ccccc3)S2)n1 [Compound 133, {2-[5-(3-Benzyloxy-naphthalen-2-ylmethylene)-4-oxo-4,5-dihydro-thiazol-2-ylamino]-thiazol-4-yl}-acetic acid]
  Activity Score: (+++) (+++ = >50% inhibition)

## CC(=C1SC(Nc2ccc(CC(=O)O)cc2)=NC1=O)c1cccc(-n2cccc2)c1 [Compound 61, (4-{4-Oxo-5-[1-(3-pyrrol-1-yl-phenyl)-ethylidene]-4,5-dihydro-thiazol-2-ylamino}-phenyl)-acetic acid]
  Activity Score: (+) (+ = 10-20% inhibition)

## O=C(O)Cc1ccc(NC2=NC(=O)C(=Cc3cc4ccccc4cc3OCC3CCCO3)S2)cc1 (stereo not shown) [Compound 142, (4-{4-Oxo-5-[3-(tetrahydro-furan-2-ylmethoxy)-naphthalen-2-ylmethylene]-4,5-dihydro-thiazol-2-ylamino}-phenyl)-acetic acid]
  Activity Score: (++) (++ = 20-50% inhibition)

## Cc1ccc(S(=O)(=O)NC(=O)Cc2ccc(NC3=NC(=O)C(=Cc4cc5ccccc5cc4OCc4ccccc4)S3)cc2)cc1 [Compound 26, N-(2-{4-[5-(3-Benzyloxy-naphthalen-2-ylmethylene)-4-oxo-4,5-dihydro-thiazol-2-ylamino]-phenyl}-acetyl)-4-methyl-benzenesulfonamide]
  Activity Score: (+) (+ = 10-20% inhibition)

## COc1ccc2cc(C=C3SC(Nc4ccc(CC(=O)O)cc4)=NC3=O)ccc2c1 [Compound 7, {4-[5-(6-Methoxy-naphthalen-2-ylmethylene)-4-oxo-4,5-dihydro-thiazol-2-ylamino]-phenyl}-acetic acid]
  Activity Score: (+++) (+++ = >50% inhibition)

## O=C(Cc1ccc(NC2=NC(=O)C(=Cc3ccc(-n4cccn4)cc3)S2)cc1)NS(=O)(=O)c1ccccc1 [Compound 103, N-(2-{4-[4-Oxo-5-(4-pyrazol-1-yl-benzylidene)-4,5-dihydro-thiazol-2-ylamino]-phenyl}-acetyl)-benzenesulfonamide]
  Activity Score: (+) (+ = 10-20% inhibition)

## O=C(O)Cc1cccc(NC2=NC(=O)C(=Cc3cc4ccccc4cc3OCc3ccccc3)S2)c1 [Compound 14, {3-[5-(3-Benzyloxy-naphthalen-2-ylmethylene)-4-oxo-4,5-dihydro-thiazol-2-ylamino]-phenyl}-acetic acid]
  Activity Score: (++) (++ = 20-50% inhibition)

## N#Cc1ccc(-c2ccc(C=C3SC(Nc4ccc(CC(=O)O)cc4)=NC3=O)cc2)cc1 [Compound 243, {4-[5-(4′-Cyano-biphenyl-4-ylmethylene)-4-oxo-4,5-dihydro-thiazol-2-ylamino]-phenyl}-acetic acid]
  Activity Score: (+++) (+++ = >50% inhibition)
